# Data: patent publication US20250223303A1, “TRICYCLIC BORONIC ACID DERIVATIVE, AND PREPARATION METHOD THEREFOR AND APPLICATION THEREOF” (priority 2021, published 2025)
# How the values were obtained:
# [1] = test system: Acinetobacter baumannii WX-AB013; assay: MIC test of compounds in combination with antibiotics, Acinetobacter baumannii WX-AB013; conditions: for MIC of biapenem in combination with compound, Acinetobacter baumannii WX-AB013: Biapenem + compound (8 μg/mL); for MIC of meropenem in combination with compound, Acinetobacter baumannii WX-AB013: Meropenem + compound (8 μg/mL)
# Experimental: (§1) 2-Fold gradient dilution of antibiotics: 300 μL of CAMHVIB medium was added to columns 2-12 of a 96-deep well plate. In column 1, 24 μL of antibiotic stock solution and 576 µL of CAMHB medium were added and mixed well, with a concentration of 512 μg/mL. 300 µL of antibiotic solution was transferred from the column 1 to the second column and mixed well. The process was repeated until column 11, and the column 12 was a blank control.
# (§2) Dilution of combined compounds: the compound was diluted 400-fold to 32 μg/ml with CAMHB medium.
# (§3) Working solution aliquoting: 25 μL of antibiotics was aliquoted into the 96-U bottom plate with a pipette, and 25 μL of combined compound was added to each well. If antibiotics were used alone, 25 μL of CAMHB medium was added.
# (§4) Inoculum solution preparation: 5-6 single colonies were selected from the plate and suspended in normal saline. The bacterial suspension was adjusted to 0.2 (i.e., 0.5 McFarland turbidity, with a bacterial concentration was about 1 to 2×10^8 CFU/mL) with a turbidity meter. The bacterial suspension was diluted 100-fold with CAMHB medium for later use.
# (§5) Inoculation: 50 μL of inoculum solution was transferred to the above 50 μL compound plate with a pipette.
# (§6) Culture: The 96-U bottom plate was placed in an incubator at 37° C. for 18 to 20 h.
# [2] = test system: Klebsiella pneumoniae ATCC BAA-2470; assay: MIC test of compounds in combination with antibiotics, Klebsiella pneumoniae ATCC BAA-2470; conditions: for MIC of biapenem in combination with compound, Klebsiella pneumoniae ATCC BAA-2470 NDM-1: Biapenem + compound (8 μg/mL); for MIC of meropenem in combination with compound, Klebsiella pneumoniae ATCC BAA-2470 NDM-1: Meropenem + compound (8 μg/mL)
# Experimental: (§7) Strain preparation: the strains to be tested were streaked from glycerol tube at −80° C. onto Mueller Hinton II Agar plates. The plates were then placed in a 37° C. incubator and cultured for 18-24 hours.
# (§8) Media preparation: CAMHB (Mueller Hinton II Broth): 22 g of powder was dissolved in 1 L of purified water and sterilized at 121° C. for 10 min for use. Saline: 8.5 g NaCl was dissolved in 1 L of pure water and sterilized at 121° C. for 30 min for use.
# (§9) Preparation of compound and antibiotic stock solutions: the compound and antibiotic were dissolved in DMSO or water to 12.8 mg/mL.
# as §1, §2, §3, §4, §5, §6
# (§10) After the incubation, bacterial growth was visually observed, and the test plate was photographed and recorded.
# [3] = test system: Acinetobacter baumannii ARLG-1853 OXA-23; assay: MIC test of compounds in combination with antibiotics, Acinetobacter baumannii ARLG-1853; conditions: for MIC of biapenem in combination with compound, Acinetobacter baumannii ARLG-1853 OXA-23: Biapenem + compound (8 μg/mL); for MIC of meropenem in combination with compound, Acinetobacter baumannii ARLG-1853 OXA-23: Meropenem + compound (8 μg/mL)
# Experimental: as §1, §2, §3, §4, §5, §6
# [4] = test system: Acinetobacter baumannii WX-AB005; assay: MIC test of compounds in combination with antibiotics, Acinetobacter baumannii WX-AB005; conditions: for MIC of biapenem in combination with compound, Acinetobacter baumannii WX-AB005: Biapenem + compound (8 μg/mL); for MIC of meropenem in combination with compound, Acinetobacter baumannii WX-AB005: Meropenem + compound (8 μg/mL)
# Experimental: as §1, §2, §3, §4, §5, §6
# [5] = test system: Acinetobacter baumannii ARLG-1852 OXA-23; assay: MIC test of compounds in combination with antibiotics, Acinetobacter baumannii ARLG-1852; conditions: for MIC of biapenem in combination with compound, Acinetobacter baumannii ARLG-1852 OXA-23: Biapenem + compound (8 μg/mL); for MIC of meropenem in combination with compound, Acinetobacter baumannii ARLG-1852 OXA-23: Meropenem + compound (8 μg/mL)
# Experimental: as §1, §2, §3, §4, §5, §6
# [6] = test system: Klebsiella pneumoniae ARLG 1196; assay: MIC test of compounds in combination with antibiotics, Klebsiella pneumoniae ARLG 1196; conditions: for MIC of biapenem in combination with compound, Klebsiella pneumoniae ARLG-1196 CTM-1 group, SHV, NDM, TEM: Biapenem + compound (8 μg/mL); for MIC of meropenem in combination with compound, Klebsiella pneumoniae ARLG-1196 CTM-1 group, SHV, NDM, TEM: Meropenem + compound (8 μg/mL)
# Experimental: as §7, §8, §9, §1, §2, §3, §4, §5, §6, §10
# [7] = test system: Klebsiella pneumoniae ATCC BAA-1705; assay: MIC test of compounds in combination with antibiotics, Klebsiella pneumoniae ATCC BAA-1705; conditions: for MIC of biapenem in combination with compound, Klebsiella pneumoniae ATCC BAA-1705 KPC-2: Biapenem + compound (8 μg/mL); for MIC of meropenem in combination with compound, Klebsiella pneumoniae ATCC BAA-1705 KPC-2: Meropenem + compound (8 μg/mL)
# [8] = test system: Acinetobacter baumannii ARLG-1791 OXA-23; assay: MIC test of compounds in combination with antibiotics, Acinetobacter baumannii ARLG-1791; conditions: for MIC of biapenem in combination with compound, Acinetobacter baumannii ARLG-1791 OXA-23: Biapenem + compound (8 μg/mL); for MIC of meropenem in combination with compound, Acinetobacter baumannii ARLG-1791 OXA-23: Meropenem + compound (8 μg/mL)
# Experimental: as §1, §2, §3, §4, §5, §6
# [9] = test system: Acinetobacter baumannii ARLG-1809 OXA-23; assay: MIC test of compounds in combination with antibiotics, Acinetobacter baumannii ARLG-1809; conditions: for MIC of biapenem in combination with compound, Acinetobacter baumannii ARLG-1809 OXA-23: Biapenem + compound (8 μg/mL); for MIC of meropenem in combination with compound, Acinetobacter baumannii ARLG-1809 OXA-23: Meropenem + compound (8 μg/mL)
# Experimental: as §1, §2, §3, §4, §5, §6
# [10] = test system: Escherichia coli ARLG 2829; assay: MIC test of compounds in combination with antibiotics, Escherichia coli ARLG 2829; conditions: for MIC of biapenem in combination with compound, Escherichia coli ARLG-2829 NDM-5, OXA-1: Biapenem + compound (8 μg/mL); for MIC of meropenem in combination with compound, Escherichia coli ARLG-2829 NDM-5, OXA-1: Meropenem + compound (8 μg/mL)
# Experimental: as §7, §8, §9, §1, §2, §3, §4, §5, §6, §10
SMILES,"MIC of biapenem in combination with compound, Acinetobacter baumannii WX-AB013 [1]","MIC of meropenem in combination with compound, Acinetobacter baumannii WX-AB013 [1]","MIC of biapenem in combination with compound, Klebsiella pneumoniae ATCC BAA-2470 NDM-1 [2]","MIC of meropenem in combination with compound, Klebsiella pneumoniae ATCC BAA-2470 NDM-1 [2]","MIC of biapenem in combination with compound, Acinetobacter baumannii ARLG-1853 OXA-23 [3]","MIC of meropenem in combination with compound, Acinetobacter baumannii ARLG-1853 OXA-23 [3]","MIC of biapenem in combination with compound, Acinetobacter baumannii WX-AB005 [4]","MIC of meropenem in combination with compound, Acinetobacter baumannii WX-AB005 [4]","MIC of biapenem in combination with compound, Acinetobacter baumannii ARLG-1852 OXA-23 [5]","MIC of meropenem in combination with compound, Acinetobacter baumannii ARLG-1852 OXA-23 [5]","MIC of biapenem in combination with compound, Klebsiella pneumoniae ARLG-1196 CTM-1 group, SHV, NDM, TEM [6]","MIC of meropenem in combination with compound, Klebsiella pneumoniae ARLG-1196 CTM-1 group, SHV, NDM, TEM [6]","MIC of biapenem in combination with compound, Klebsiella pneumoniae ATCC BAA-1705 KPC-2 [7]","MIC of meropenem in combination with compound, Klebsiella pneumoniae ATCC BAA-1705 KPC-2 [7]","MIC of biapenem in combination with compound, Acinetobacter baumannii ARLG-1791 OXA-23 [8]","MIC of meropenem in combination with compound, Acinetobacter baumannii ARLG-1791 OXA-23 [8]","MIC of biapenem in combination with compound, Acinetobacter baumannii ARLG-1809 OXA-23 [9]","MIC of meropenem in combination with compound, Acinetobacter baumannii ARLG-1809 OXA-23 [9]","MIC of biapenem in combination with compound, Escherichia coli ARLG-2829 NDM-5, OXA-1 [10]","MIC of meropenem in combination with compound, Escherichia coli ARLG-2829 NDM-5, OXA-1 [10]"
"NC1COCC1Sc1ccc2c(c1C(=O)O)OB(O)C1CC21 (single isomer, unassigned) [Compound 11_P2]",0.5 µg/mL,2 µg/mL,0.25 µg/mL,0.5 µg/mL,≤0.125 µg/mL,1 µg/mL,1 µg/mL,4 µg/mL,≤0.125 µg/mL,1 µg/mL,0.25 µg/mL,2 µg/mL,0.25 µg/mL,≤0.125 µg/mL,0.25 µg/mL,2 µg/mL,0.25 µg/mL,2 µg/mL,≤0.125 µg/mL,≤0.125 µg/mL
"CC(Sc1ccc2c(c1C(=O)O)OB(O)C1CC21)C1CCOCC1 (single isomer, unassigned) [Compound 17-b]",2 µg/mL,16 µg/mL,0.25 µg/mL,64 µg/mL,1 µg/mL,16 µg/mL,4 µg/mL,32 µg/mL,0.5 µg/mL,8 µg/mL,0.5 µg/mL,8 µg/mL,2 µg/mL,8 µg/mL,2 µg/mL,16 µg/mL,4 µg/mL,32 µg/mL,0.25 µg/mL,4 µg/mL
"CC(Sc1ccc2c(c1C(=O)O)OB(O)C1CC21)C1CC1 (single isomer, unassigned) [Compound 16-b]",2 µg/mL,4 µg/mL,1 µg/mL,16 µg/mL,1 µg/mL,8 µg/mL,4 µg/mL,8 µg/mL,0.5 µg/mL,4 µg/mL,0.5 µg/mL,8 µg/mL,0.25 µg/mL,2 µg/mL,1 µg/mL,8 µg/mL,2 µg/mL,4 µg/mL,0.5 µg/mL,16 µg/mL
"NC1COCC1Sc1ccc2c(c1C(=O)O)OB(O)C1CC21 (single isomer, unassigned) [Compound 10_P1]",0.5 µg/mL,2 µg/mL,≤0.125 µg/mL,≤0.125 µg/mL,0.5 µg/mL,2 µg/mL,2 µg/mL,4 µg/mL,0.25 µg/mL,1 µg/mL,0.25 µg/mL,2 µg/mL,≤0.125 µg/mL,≤0.125 µg/mL,0.5 µg/mL,4 µg/mL,1 µg/mL,2 µg/mL,≤0.125 µg/mL,1 µg/mL
"CC(Sc1ccc2c(c1C(=O)O)OB(O)C1CC21)C1CC1 (single isomer, unassigned) [Compound 16-d]",0.5 µg/mL,4 µg/mL,0.25 µg/mL,0.5 µg/mL,0.25 µg/mL,2 µg/mL,2 µg/mL,8 µg/mL,0.25 µg/mL,2 µg/mL,≤0.125 µg/mL,0.25 µg/mL,0.5 µg/mL,2 µg/mL,0.5 µg/mL,8 µg/mL,0.5 µg/mL,4 µg/mL,≤0.125 µg/mL,0.5 µg/mL
